Experimental data published in patent US20210223230A1, “Neamine Compositions and Methods of Use Thereof” (President and Fellows of Harvard College, priority 2008, published 2021).
Values joined by “and” are separate entries in the source; they are usually repeats but may differ in a detail not shown here. Equal entries are not always repeated. “Also recorded” adds a separate entry of the source. Where two headings read alike, the source gives them in different places.

Columns and labels:
LNCaP cells = assay: LNCaP cell proliferation in phenol red-free and steroid-free medium; format: cell-based, human; details: ANG 0.1 μg/ml, DHT 10 nM
Experimental: (a) ANG stimulates LNCaP cell proliferation in the absence of androgens. Cells were culture in phenol red-free and charcoal/dextran-stripped (steroid-free) FBS for 2 day and stimulated with DHT (10 nM), ANG (0.1 μg/ml), or a mixture of the two for the time indicated. (b) Dose dependence. ANG was added to the cells and cultured for 4 days. (c) Anti-ANG mAb 26-2F inhibits DHT-induced cell proliferation. LNCaP cells were stimulated with 10 nM DHT in the presence of 26-2F or a control non-immune IgG for 3 days. (d) ANG over-expression promotes LNCaP proliferation in vitro. The vector control (pCI-Neo) and ANG transfectants (pCI-ANG) were cultured in phenol red-free and steroid-free medium for the time indicated. (e) Xenograft growth in castrated SCID mice. A mixture of 70 μl cell suspension (1×10^6 cells) and 30 μl Matrigel was injected s.c. per mouse (8 per group). The mice were castrated or sham-operated at the same time. Tumors were inspected and measured twice a week and the animals were sacrificed after 8 weeks of observation. (f) Endogenous ANG of LNCaP cells is essential for androgen-induced rRNA transcription. LNCaP cells were cultured in phenol red-free and steroid-free medium and incubated with DHT (10 nM), ANG (0.1 μg/ml), anti-ANG mAb 26-2F (60 μg/ml) or a mixture of DHT and 26-2F for 2 h. […]

ANG [1] = details: literature reports; cited from earlier work
angiogenesis = details: literature reports; cited from earlier work
ANG [2] = assay: Nuclear translocation of ANG; format: cell-based; details: inhibitors tested
AKT-induced PIN = assay: Prevention of AKT-induced PIN in 4-week-old MPAKT mice by small-molecule ANG inhibitors; details: for 47S rRNA level / transcription (ISH) / AKT phosphorylation (IHC) / localization of ANG in prostate epithelial cells (IHC) / PIN formation (H&E): daily i.p. 4 weeks from week 4; for PIN formation (H&E): neamine, neomycin 10 mg/kg, N65828 4 mg/kg
[3] = in vivo; cited from earlier work
[4] = test system: PC-3 human prostate cancer cells; details: nude mice, literature; cited from earlier work
established PIN = assay: Reversal of established PIN in 12-week-old MPAKT mice; format: in vivo; details: for AKT expression and phosphorylation (IHC) / established PIN phenotype (H&E) / rRNA transcription / 47S rRNA level (ISH): daily i.p. 4 weeks from week 12
PC-3 cell tumor tissues = assay: IHC and ISH of PC-3 xenograft tumor tissues (ANG localization, 47S rRNA, PCNA, vWF); format: in vivo, athymic mice
Experimental: PBS- and neamine-treated tumor tissues were fixed in formalin, embedded in paraffin, and sections of […] were cut. (A) Localization of ANG was determined by IHC with anti-human ANG monoclonal antibody 26-2F. […] (C) Proliferating cells were stained with an anti-PCNA monoclonal antibody (mAb). PCNA positive and total numbers of cells were counted in 5 randomly selected areas at 200× magnification. (D) Blood vessels were stained with an anti-vWF antibody and counted in five most vascularized areas at 200× magnification.

[5] = Adverse side effects in the treated mice of these studies; format: in vivo; details: 30 mg/kg s.c. and 10 mg/kg i.p.
[6] = test system: MDA-MB-435 human breast cancer cells; details: cited from earlier work
[7] = Acute LD50 (subcutaneous) in mice; format: in vivo
[8] = test system: HT-29 human colon adenocarcinoma; details: cited from earlier work
[9] = test system: PC-3 human prostate cancer cells; assay: Xenograft growth of PC-3 cell tumors in athymic mice; format: in vivo
Experimental: Male athymic mice were inoculated with 5×10^5 of PC-3 cells, and treated sub-cutaneously (s.c.) with PBS or neamine at a dose of 30 mg/kg body weight twice weekly for 8 weeks. Twelve mice were used per group. (A) Mice were examined by palpation for tumor appearance. (B) Tumor sizes were measured with a caliper and were expressed as length×width^2. At day 56, mice were sacrificed and tumor tissues were removed, photographed (C) and weighed (D).
Xenograft growth of PC-3 cell tumors. Five-week-old male athymic mice were inoculated s.c. with 100 μl of a mixture containing 5×10^5 PC-3 cells and 33 μl of Matrigel. The mice were treated s.c. with PBS or neamine (30 mg/kg) twice weekly for 8 weeks. Tumor sizes were measured every 3 days and recorded in mm^3 (Length×width^2). Mice were sacrificed at day 56 and the tumors were removed and the wet weights of the PC-3 tumors were recorded.

[10] = cited from earlier work
[11] = mouse, in vivo, sc; cited from earlier work

## C[C@]12CCC(=O)C[C@@H]1CC[C@@H]1[C@@H]2CC[C@]2(C)[C@@H](O)CC[C@@H]12 [DHT, dihydrotestosterone, reference compound]
LNCaP cells
  LNCaP cell proliferation in the absence of androgens: stimulates

## NCC[C@H](O)C(=O)N[C@@H]1C[C@H](N)[C@@H](O[C@H]2O[C@H](CN)[C@@H](O)[C@H](O)[C@H]2O)[C@H](O)[C@H]1O[C@H]1O[C@H](CO)[C@@H](O)[C@H](N)[C@H]1O [amikacin]
ANG [1]
  effect on nuclear translocation of ANG: do not block
angiogenesis
  anti-angiogenic activity: not anti-angiogenic

## COc1ccc2c(c1)CC[C@@H]1[C@@H]2CC[C@]2(C)[C@@H](NCCCCCCN3C(=O)C=CC3=O)CC[C@@H]12 [U-73122]
ANG [2]
  effect on nuclear translocation of ANG: only marginally block

## CN[C@@H]1C[C@H]2O[C@@](C)([C@@H]1OC)n1c3ccccc3c3c4c(c5c6ccccc6n2c5c31)C(=O)NC4 [staurosporine]
ANG [2]
  effect on nuclear translocation of ANG: no detectable effect

## gentamicin
ANG [1]
  effect on nuclear translocation of ANG: do not block
angiogenesis
  anti-angiogenic activity: not anti-angiogenic

## O=c1c(-c2ccc(O)cc2)coc2cc(O)cc(O)c12 [Genistein]
ANG [2]
  effect on nuclear translocation of ANG: no detectable effect

## neomycin
ANG [1]
  effect on nuclear translocation of ANG: blocks
AKT-induced PIN
  47S rRNA level / transcription (ISH): inhibited
  AKT phosphorylation (IHC): not altered
  localization of ANG in prostate epithelial cells (IHC): extracellular
  PIN formation (H&E): prevented PIN formation
[3]
  renal cortical levels relative to circulating levels in serum: ≤ 20 times
[4]
  xenograft growth of PC-3 cells: inhibit
Established PIN
  AKT expression and phosphorylation (IHC): not different from that of the control group
  established PIN phenotype (H&E): reversed
  rRNA transcription / 47S rRNA level (ISH): dramatically decreased
Established PIN; neomycin 10 mg/kg, N65828 4 mg/kg daily i.p. 4 weeks from week 12, control 0.95±0.11
  apoptotic index: 1.95±0.19 caspase 3 positive cells per duct
Established PIN; neomycin 4 weeks from week 12
  luminal cell size: restored cell size to normal
Established PIN; neomycin 4 weeks from week 12, control 69.8
  size of the ventral prostate of a representative mouse: 44.3 mm^3

## NC[C@H]1O[C@H](O[C@H]2[C@H](O)[C@@H](O)[C@H](N)C[C@@H]2N)[C@H](N)[C@@H](O)[C@@H]1O [neamine]
PC-3 cell tumor tissues; from PCNA positive cells vs control
  decrease in cell proliferation: 66%
PC-3 cell tumor tissues; from vessel density vs control
  decrease in tumor angiogenesis: 72.8%
PC-3 cell tumor tissues; neamine-treated PC-3 tumors, control 75.4±6
  PCNA positive cells: 25.6±6.4%
PC-3 cell tumor tissues; neamine-treated PC-3 tumors, control 82±3.2
  vessel density (vWF): 22.3±9.6 vessels per mm^2
PC-3 cell tumor tissues; neamine-treated PC-3 tumors, nuclear in untreated
  localization of ANG in tumor cells (IHC, 26-2F): most of the ANG is extracellular
PC-3 cell tumor tissues; neamine-treated vs control tumor tissues
  47S rRNA level (ISH): decreased significantly
ANG [1]
  effect on nuclear translocation of ANG: comparable activity
[5]
  acute or chronic adverse side effects: No acute or chronic adverse side effects; also recorded: not observed
angiogenesis
  anti-angiogenic activity: equally effective
AKT-induced PIN
  47S rRNA level / transcription (ISH): decreased dramatically
  AKT phosphorylation (IHC): did not differ from those of controls
  localization of ANG in prostate epithelial cells (IHC): predominantly cytoplasmic and extracellular
  PIN formation (H&E): inhibited PIN formation
AKT-induced PIN; neamine 10 mg/kg daily 4 weeks, control 11.5±4.5
  vessel density (CD31) in ventral prostate: 4±0.5 per mm^2
AKT-induced PIN; neamine 10 mg/kg daily 4 weeks, untreated PIN 61.1±9.3
  Ki-67 positive cells: 24.9±8.4%
AKT-induced PIN; neamine 10 mg/kg daily i.p. 4 weeks from week 4, control 95.1±4.3
  percentage of PIN in the ventral prostate: 39.6±1.4%
[6]
  xenograft growth: inhibits
[7]; 30 mg/kg s.c. vs LD50 1250 mg/kg
  fold by which the 30 mg/kg dose is lower than the reported LD50: 42 fold
[7]; LD50 1,250 mg/kg vs 160 mg/kg
  fold by which LD50 is higher than the highest scheduled dose: 7.8 fold
[8]
  xenograft growth: inhibits
[9]; day 56, from tumor weight vs control
  inhibition of tumor growth: 72.5%
[9]; day 56, neamine 30 mg/kg s.c. twice weekly, control 620±310
  average tumor weight: 170 ± 50 mg
[9]; neamine 30 mg/kg s.c. twice weekly
  tumor growth rate in animals that did develop tumors: decreased significantly
[9]; neamine 30 mg/kg s.c. twice weekly for 8 weeks, n=12
  animals in which tumor establishment was prevented: 50%
[9]; neamine 30 mg/kg s.c. twice weekly, day 20
  animals with palpable tumors at day 20: 5 of the 12
[10]; cell and organ culture
  nephrotoxicity relative to that of neomycin: ~5%
  ototoxicity relative to that of neomycin: ~6%
[10]; toxicity profile
  toxicity relative to neomycin (fold less toxic): close to that of streptomycin and kanamycin
Established PIN
  AKT expression and phosphorylation (IHC): not affected
  established PIN phenotype (H&E): shrank established PIN
  rRNA transcription / 47S rRNA level (ISH): inhibited
Established PIN; neamine 10 mg/kg daily i.p. 4 weeks from week 12, untreated 0.89±0.12
  apoptotic index (TUNEL): 2.15±0.17 per duct
Established PIN; neamine 10 mg/kg daily i.p. 4 weeks, 12 mice
  mice with PIN regression: all 12
Established PIN; neamine 10 mg/kg daily i.p. 4 weeks, before/control 95.2±3.2
  percentage of glands having PIN: 33% and 33.4±5.2%

## NC[C@@H]1O[C@H](O[C@H]2[C@@H](O)[C@H](O[C@@H]3[C@@H](O)[C@H](N)C[C@H](N)[C@H]3O[C@H]3O[C@H](CO)[C@@H](O)[C@H](O)[C@H]3N)O[C@@H]2CO)[C@H](N)[C@@H](O)[C@@H]1O [paromomycin]
ANG [1]
  effect on nuclear translocation of ANG: do not block
angiogenesis
  anti-angiogenic activity: not anti-angiogenic
ANG [2]
  effect on nuclear translocation of ANG: does not detectably block

## [H]/N=C(/N)N[C@H]1[C@H](O)[C@@H](O)[C@H](O[C@@H]2O[C@@H](C)[C@](O)(C=O)[C@H]2O[C@@H]2O[C@@H](CO)[C@H](O)[C@@H](O)[C@@H]2NC)[C@@H](N/C(N)=N\[H])[C@@H]1O [streptomycin]
ANG [1]
  effect on nuclear translocation of ANG: do not block
angiogenesis
  anti-angiogenic activity: not anti-angiogenic
[11]
  acute LD50 (subcutaneous) in mice: 600 mg/kg

## COc1ccc2c(c1)CC[C@@H]1[C@@H]2CC[C@]2(C)[C@@H](NCCCCCCN3C(=O)CCC3=O)CC[C@@H]12 [U-73343]
ANG [2]
  effect on nuclear translocation of ANG: only marginally block
